Tests used:
Type in all cases: cell-based, human
[1] = system: Mel270 uveal melanoma cells; assay: Mitochondrial membrane potential by TMRE staining; conditions: Mel270; ABT-263 3 μM or 5 μM, 48 h
Description: (§1) FIG. 1. ABT-263 induces apoptosis of uveal melanoma cells. Detection of the mitochondrial membrane potential using TMRE staining in Mel270 and OMM1 uveal melanoma cells exposed to ABT-263 3 μM or 5 μM for 48 h in the absence or presence of QVD-OPh 20 μM.

[2] = system: OMM1 uveal melanoma cells; assay: Mitochondrial membrane potential by TMRE staining; conditions: OMM1; ABT-263 3 μM or 5 μM, 48 h
Description: as §1

[3] = system: OMM2,5 metastatic melanoma cells; assay: Cell proliferation assay
Description: (§2) Human uveal melanoma cell lines and short-term cultures derived from different patients with metastatic malignant melanoma cells were grown in DMEM supplemented with 7% FBS at 37° C. in a humidified atmosphere containing 5% CO2. Lipofectamine™ RNAiMAX and opti-MEM medium were purchased from Invitrogen (San Diego, CA, USA). ABT-263 was obtained from Euromedex and qVD from Clinisciences.

OMM1 cells = assay: Cell proliferation assay; conditions: OMM1 metastatic melanoma cells
Description: as §2

primary melanoma cells = assay: Cell proliferation assay; conditions: data not shown
Description: as §2

metastatic cell lines = assay: Colony formation assay; conditions: metastatic versus primary cell lines; data not shown
Description: Human uveal melanoma cells were seeded onto 6-well plates. The cells were subsequently placed in a 37° C., 5% C02 incubator. Colonies of cells were grown before being stained with 0.04% crystal violet/2% ethanol in PBS for 30 min. Photographs of the stained colonies were captured. The colony formation assay was performed in duplicate.

CC1(C)CCC(c2ccc(Cl)cc2)=C(CN2CCN(c3ccc(C(=O)NS(=O)(=O)c4ccc(N[C@H](CCN5CCOCC5)CSc5ccccc5)c(S(=O)(=O)C(F)(F)F)c4)cc3)CC2)C1 [ABT-263, 4-[4-[[2-(4-chlorophenyl)-5,5-dimethyl-1-cyclohexen-1-yl]methyl]-1-piperazinyl]-N-[[4-[[(1R)-3-(4-morpholinyl)-1-[(phenylthio)methyl]propyl]amino]-3-[(trifluoromethyl)sulfonyl]phenyl]sulfonyl]-benzamide]
mitochondrial membrane potential ΔΨm [1]: dose-dependently reduced
mitochondrial membrane potential ΔΨm [2]: dose-dependently reduced
proliferation [3]: strongly reduced proliferation
proliferation (OMM1 cells): strongly reduced proliferation
proliferation, response of primary melanoma cells (primary melanoma cells): highly resistant
long-term growth inhibitory activity (colony formation) (metastatic cell lines): more sensitive

From patent US20240122938A1, “METHODS AND COMPOSITIONS FOR TREATING UVEAL MELANOMA” (INSERM (INSTITUT NATIONAL DE LA SANTÉ ET DE LA RECHERCHE …, priority 2019, published 2024)
